Measured values taken from patent publication US10844077B2, “Thiazolyl-containing compounds for treating proliferative diseases” (Dana-Farber Cancer Institute, Inc., priority 2014, dated 2020).
“And” between values parts separate entries of the source, which are not always exact repeats. Equal entries are not always repeated. Where two headings read alike, the source gives them in different places.

Legend:
CHK1 = CHK1 (Homo sapiens (Human), UniProt O14757); test: KINATIV assay; type: cell-based; conditions: 1 μM, 90 minutes, BCWM.1 cells
CHK1, sequence (O14757 whole entry): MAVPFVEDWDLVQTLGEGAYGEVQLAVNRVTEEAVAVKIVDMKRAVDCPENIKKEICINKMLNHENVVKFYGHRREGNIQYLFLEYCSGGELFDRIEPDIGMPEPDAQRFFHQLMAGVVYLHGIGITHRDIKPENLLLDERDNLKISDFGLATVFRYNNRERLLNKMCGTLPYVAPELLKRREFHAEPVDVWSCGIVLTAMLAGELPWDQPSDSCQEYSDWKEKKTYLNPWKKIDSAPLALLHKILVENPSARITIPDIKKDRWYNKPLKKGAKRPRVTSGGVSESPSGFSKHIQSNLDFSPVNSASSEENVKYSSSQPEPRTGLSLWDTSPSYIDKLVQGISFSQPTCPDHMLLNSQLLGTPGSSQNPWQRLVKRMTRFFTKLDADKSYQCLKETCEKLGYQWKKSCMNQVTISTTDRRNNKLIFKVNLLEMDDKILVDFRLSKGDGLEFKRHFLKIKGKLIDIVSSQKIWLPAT
How it was run: (§1)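 Kinase occupancy was profiled in native cell lysates, which were labeled with an ATP-biotin probe. Bound kinases were identified and quantitated using ACTIVX.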

CHK2 = CHK2 (Homo sapiens (Human), UniProt O96017); test: KINATIV assay; type: cell-based; conditions: 1 μM, 90 minutes, BCWM.1 cells
CHK2, sequence (O96017 whole entry): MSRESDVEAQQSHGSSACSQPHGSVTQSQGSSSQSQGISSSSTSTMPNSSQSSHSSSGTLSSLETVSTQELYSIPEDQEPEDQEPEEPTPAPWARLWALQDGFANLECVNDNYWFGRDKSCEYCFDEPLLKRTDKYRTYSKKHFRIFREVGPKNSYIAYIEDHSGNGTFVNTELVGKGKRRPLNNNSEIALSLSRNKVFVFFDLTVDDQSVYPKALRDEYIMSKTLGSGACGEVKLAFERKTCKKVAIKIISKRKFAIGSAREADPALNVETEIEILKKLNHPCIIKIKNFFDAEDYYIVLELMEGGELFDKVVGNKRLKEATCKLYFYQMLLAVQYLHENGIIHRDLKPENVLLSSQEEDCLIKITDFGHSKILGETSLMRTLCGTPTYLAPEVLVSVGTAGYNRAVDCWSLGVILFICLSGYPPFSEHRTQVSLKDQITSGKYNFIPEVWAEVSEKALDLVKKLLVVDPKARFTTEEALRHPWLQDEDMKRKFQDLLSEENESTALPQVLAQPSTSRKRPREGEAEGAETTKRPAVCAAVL
How it was run: as §1

FER = FER (Homo sapiens (Human), UniProt P16591); test: KINATIV assay; type: cell-based; conditions: 1 μM, 90 minutes, BCWM.1 cells
How it was run: as §1

GCK = GCK (Homo sapiens (Human), UniProt Q12851); test: KINATIV assay; type: cell-based; conditions: 1 μM, 90 minutes, BCWM.1 cells
GCK, sequence (Q12851 whole entry): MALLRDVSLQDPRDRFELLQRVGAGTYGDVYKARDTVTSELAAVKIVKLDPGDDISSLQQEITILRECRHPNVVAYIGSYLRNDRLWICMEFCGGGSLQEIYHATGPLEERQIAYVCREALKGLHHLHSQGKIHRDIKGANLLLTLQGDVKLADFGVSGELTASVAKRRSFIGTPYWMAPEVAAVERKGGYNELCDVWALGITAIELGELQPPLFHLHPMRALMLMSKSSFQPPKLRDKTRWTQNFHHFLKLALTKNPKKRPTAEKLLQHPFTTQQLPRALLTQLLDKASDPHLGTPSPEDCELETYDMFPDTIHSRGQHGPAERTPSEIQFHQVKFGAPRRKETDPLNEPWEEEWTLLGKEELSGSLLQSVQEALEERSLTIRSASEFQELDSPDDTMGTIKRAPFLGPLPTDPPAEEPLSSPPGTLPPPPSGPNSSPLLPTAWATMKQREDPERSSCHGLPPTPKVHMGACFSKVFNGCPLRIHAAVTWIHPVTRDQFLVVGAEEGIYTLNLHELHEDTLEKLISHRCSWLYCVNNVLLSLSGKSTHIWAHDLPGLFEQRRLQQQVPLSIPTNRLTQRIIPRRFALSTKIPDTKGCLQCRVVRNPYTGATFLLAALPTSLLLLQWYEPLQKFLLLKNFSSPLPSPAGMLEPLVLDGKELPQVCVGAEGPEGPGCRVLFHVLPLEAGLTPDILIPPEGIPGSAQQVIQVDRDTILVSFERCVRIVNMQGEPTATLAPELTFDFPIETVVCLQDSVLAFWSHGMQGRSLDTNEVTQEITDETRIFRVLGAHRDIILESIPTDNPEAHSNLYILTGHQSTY
How it was run: as §1

MAP2K4 = MAP2K4 (Homo sapiens (Human), UniProt P45985); test: KINATIV assay; type: cell-based; conditions: 1 μM, 90 minutes, BCWM.1 cells
How it was run: as §1

MAP2K5 = MAP2K5 (Homo sapiens (Human), UniProt Q13163); test: KINATIV assay; type: cell-based; conditions: 1 μM, 90 minutes, BCWM.1 cells
MAP2K5, sequence (Q13163 whole entry): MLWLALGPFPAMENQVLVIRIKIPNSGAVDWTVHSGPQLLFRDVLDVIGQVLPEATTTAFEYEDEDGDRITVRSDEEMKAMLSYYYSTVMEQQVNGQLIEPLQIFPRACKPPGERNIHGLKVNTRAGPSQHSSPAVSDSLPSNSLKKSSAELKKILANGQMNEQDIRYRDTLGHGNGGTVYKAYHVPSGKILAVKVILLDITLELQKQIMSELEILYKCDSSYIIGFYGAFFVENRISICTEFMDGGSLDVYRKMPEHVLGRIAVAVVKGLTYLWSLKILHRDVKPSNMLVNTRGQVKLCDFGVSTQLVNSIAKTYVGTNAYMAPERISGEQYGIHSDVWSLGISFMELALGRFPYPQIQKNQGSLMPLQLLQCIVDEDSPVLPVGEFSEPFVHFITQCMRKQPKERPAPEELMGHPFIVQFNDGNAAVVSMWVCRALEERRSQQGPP
How it was run: as §1

MST3 = MST3 (Homo sapiens (Human), UniProt Q9Y6E0); test: KINATIV assay; type: cell-based; conditions: 1 μM, 90 minutes, BCWM.1 cells
How it was run: as §1

NDR2 = NDR2 (Homo sapiens (Human), UniProt Q9Y2H1); test: KINATIV assay; type: cell-based; conditions: 1 μM, 90 minutes, BCWM.1 cells
How it was run: as §1

SMG1 = SMG1 (Homo sapiens (Human), UniProt Q96Q15); test: KINATIV assay; type: cell-based; conditions: 1 μM, 90 minutes, BCWM.1 cells
How it was run: as §1

broad panel of kinases [1] = target: broad panel of kinases (Homo sapiens, UniProt O14578); type: binding; conditions: CIT; 1 μM
broad panel of kinases [2] = target: broad panel of kinases (Homo sapiens, UniProt O14730); type: binding; conditions: RIOK3; 1 μM
broad panel of kinases [3] = target: broad panel of kinases (Homo sapiens, UniProt P00519, E255K); type: binding; conditions: ABL1(E255K)-phosphorylated; 1 μM
broad panel of kinases [4] = target: broad panel of kinases (Homo sapiens, UniProt P00519, Q252H); type: binding; conditions: 1 μM
broad panel of kinases [5] = target: broad panel of kinases (Homo sapiens, UniProt P06213); type: binding; conditions: INSR; 1 μM
broad panel of kinases [6] = target: broad panel of kinases (Homo sapiens, UniProt P22694); type: binding; conditions: PKAC-beta; 1 μM
broad panel of kinases [7] = target: broad panel of kinases (Homo sapiens, UniProt P23443); type: binding; conditions: S6K1; 1 μM
broad panel of kinases [8] = target: broad panel of kinases (Homo sapiens, UniProt P45984); type: binding; conditions: JNK2; 1 μM
broad panel of kinases [9] = target: broad panel of kinases (Homo sapiens, UniProt P46734); type: binding; conditions: MEK3; 1 μM
broad panel of kinases [10] = target: broad panel of kinases (Homo sapiens, UniProt Q12851); type: binding; conditions: MAP4K2; 1 μM
broad panel of kinases [11] = target: broad panel of kinases (Homo sapiens, UniProt Q13163); type: binding; conditions: MEK5; 1 μM
broad panel of kinases [12] = target: broad panel of kinases (Homo sapiens, UniProt Q14004); type: binding; conditions: CDC2L5; 1 μM
broad panel of kinases [13] = target: broad panel of kinases (Homo sapiens, UniProt Q15569); type: binding; conditions: TESK1; 1 μM
broad panel of kinases [14] = target: broad panel of kinases (Homo sapiens, UniProt Q15759); type: binding; conditions: p38-beta; 1 μM
broad panel of kinases [15] = target: broad panel of kinases (Homo sapiens, UniProt Q16566); type: binding; conditions: CAMK4; 1 μM
broad panel of kinases [16] = target: broad panel of kinases (Homo sapiens, UniProt Q6ZWH5); type: binding; conditions: NEK10; 1 μM
broad panel of kinases [17] = target: broad panel of kinases (Homo sapiens, UniProt Q96GD4); type: binding; conditions: AURKB; 1 μM
broad panel of kinases [18] = target: broad panel of kinases (Homo sapiens, UniProt Q99683); type: binding; conditions: ASK1; 1 μM
broad panel of kinases [19] = target: broad panel of kinases (Homo sapiens, UniProt Q9BUB5); type: binding; conditions: MKNK1; 1 μM
broad panel of kinases [20] = target: broad panel of kinases (Homo sapiens, UniProt Q9H0K1); type: binding; conditions: SIK2; 1 μM
broad panel of kinases [21] = target: broad panel of kinases (Homo sapiens, UniProt Q9H2G2); type: binding; conditions: SLK; 1 μM
broad panel of kinases [22] = target: broad panel of kinases (Homo sapiens, UniProt Q9P1W9); type: binding; conditions: PIM2; 1 μM
broad panel of kinases [23] = target: broad panel of kinases (Homo sapiens, UniProt Q9Y616); type: binding; conditions: IRAK3; 1 μM
CDK5 = CDK5 (Homo sapiens (Human), UniProt Q00535); test: KINATIV assay; type: cell-based; conditions: 1 μM, 90 minutes, BCWM.1 cells
CDK5, sequence (Q00535 whole entry): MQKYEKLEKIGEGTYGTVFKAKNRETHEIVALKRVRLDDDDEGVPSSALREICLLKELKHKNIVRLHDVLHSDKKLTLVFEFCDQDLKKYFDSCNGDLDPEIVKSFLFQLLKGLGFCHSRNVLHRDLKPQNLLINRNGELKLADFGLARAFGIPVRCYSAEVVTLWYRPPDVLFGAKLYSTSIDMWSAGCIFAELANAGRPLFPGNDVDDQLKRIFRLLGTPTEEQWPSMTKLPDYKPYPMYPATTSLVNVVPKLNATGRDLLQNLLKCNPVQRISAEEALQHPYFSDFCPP
How it was run: as §1

IRAK4 = IRAK4 (Homo sapiens (Human), UniProt Q9NWZ3); test: KINATIV assay; type: cell-based; conditions: 1 μM, 90 minutes, BCWM.1 cells
IRAK4, sequence (Q9NWZ3 whole entry): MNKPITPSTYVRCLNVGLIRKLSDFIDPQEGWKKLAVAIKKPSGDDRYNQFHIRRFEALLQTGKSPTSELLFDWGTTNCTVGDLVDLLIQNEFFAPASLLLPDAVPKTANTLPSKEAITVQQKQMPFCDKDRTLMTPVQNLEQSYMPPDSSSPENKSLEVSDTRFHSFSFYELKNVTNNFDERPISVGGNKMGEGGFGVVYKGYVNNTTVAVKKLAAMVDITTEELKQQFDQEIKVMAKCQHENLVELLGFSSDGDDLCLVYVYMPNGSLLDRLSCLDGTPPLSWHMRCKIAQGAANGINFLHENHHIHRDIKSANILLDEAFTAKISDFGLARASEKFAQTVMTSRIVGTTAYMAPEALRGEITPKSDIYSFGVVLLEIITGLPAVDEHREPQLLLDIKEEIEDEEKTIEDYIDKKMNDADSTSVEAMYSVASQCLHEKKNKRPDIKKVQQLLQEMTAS
How it was run: as §1

MAP2K3 = MAP2K3 (Homo sapiens (Human), UniProt P46734); test: KINATIV assay; type: cell-based; conditions: 1 μM, 90 minutes, BCWM.1 cells
MAP2K3, sequence (P46734 whole entry): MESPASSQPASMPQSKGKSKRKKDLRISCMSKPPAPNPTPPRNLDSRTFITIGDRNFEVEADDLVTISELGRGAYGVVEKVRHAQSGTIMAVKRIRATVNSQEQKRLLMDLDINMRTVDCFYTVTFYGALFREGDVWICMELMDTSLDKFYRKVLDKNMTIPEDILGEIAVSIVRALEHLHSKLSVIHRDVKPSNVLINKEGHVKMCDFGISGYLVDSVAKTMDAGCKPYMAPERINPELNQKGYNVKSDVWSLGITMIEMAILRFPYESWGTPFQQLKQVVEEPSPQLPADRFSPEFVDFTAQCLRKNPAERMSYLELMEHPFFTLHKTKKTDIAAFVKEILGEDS
How it was run: as §1

PIK3C3 = PIK3C3 (Homo sapiens (Human), UniProt Q8NEB9); test: KINATIV assay; type: cell-based; conditions: 1 μM, 90 minutes, BCWM.1 cells
PIK3C3, sequence (Q8NEB9 whole entry): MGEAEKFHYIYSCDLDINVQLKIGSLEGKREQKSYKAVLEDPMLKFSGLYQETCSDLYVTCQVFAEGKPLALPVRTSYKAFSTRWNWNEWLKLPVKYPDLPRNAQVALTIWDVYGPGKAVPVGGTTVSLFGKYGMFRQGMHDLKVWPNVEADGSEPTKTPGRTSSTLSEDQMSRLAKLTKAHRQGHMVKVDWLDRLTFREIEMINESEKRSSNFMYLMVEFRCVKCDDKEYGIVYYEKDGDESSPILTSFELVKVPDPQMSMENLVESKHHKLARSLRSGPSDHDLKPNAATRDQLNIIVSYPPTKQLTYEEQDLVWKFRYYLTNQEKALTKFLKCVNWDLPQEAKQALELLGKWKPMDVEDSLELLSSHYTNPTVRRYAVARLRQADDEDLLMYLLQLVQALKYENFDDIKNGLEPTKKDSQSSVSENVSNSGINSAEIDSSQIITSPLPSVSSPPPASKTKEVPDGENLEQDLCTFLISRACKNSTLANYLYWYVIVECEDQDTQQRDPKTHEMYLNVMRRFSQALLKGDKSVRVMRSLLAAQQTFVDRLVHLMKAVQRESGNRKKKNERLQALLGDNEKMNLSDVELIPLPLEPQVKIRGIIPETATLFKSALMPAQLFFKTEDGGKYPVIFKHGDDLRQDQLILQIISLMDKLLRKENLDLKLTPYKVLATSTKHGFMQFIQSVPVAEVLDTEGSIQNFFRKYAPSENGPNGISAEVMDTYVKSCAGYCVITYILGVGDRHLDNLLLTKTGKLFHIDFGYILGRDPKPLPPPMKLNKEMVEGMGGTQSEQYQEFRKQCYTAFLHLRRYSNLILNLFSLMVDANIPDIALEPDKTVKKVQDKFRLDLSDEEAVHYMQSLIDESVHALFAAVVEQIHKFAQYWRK
How it was run: as §1

RSK1 domain 1 = RSK1 domain 1 (Homo sapiens (Human), UniProt Q15418); test: KINATIV assay; type: cell-based; conditions: 1 μM, 90 minutes, BCWM.1 cells
RSK1 domain 1, sequence (Q15418 whole entry, the tested form may be a part): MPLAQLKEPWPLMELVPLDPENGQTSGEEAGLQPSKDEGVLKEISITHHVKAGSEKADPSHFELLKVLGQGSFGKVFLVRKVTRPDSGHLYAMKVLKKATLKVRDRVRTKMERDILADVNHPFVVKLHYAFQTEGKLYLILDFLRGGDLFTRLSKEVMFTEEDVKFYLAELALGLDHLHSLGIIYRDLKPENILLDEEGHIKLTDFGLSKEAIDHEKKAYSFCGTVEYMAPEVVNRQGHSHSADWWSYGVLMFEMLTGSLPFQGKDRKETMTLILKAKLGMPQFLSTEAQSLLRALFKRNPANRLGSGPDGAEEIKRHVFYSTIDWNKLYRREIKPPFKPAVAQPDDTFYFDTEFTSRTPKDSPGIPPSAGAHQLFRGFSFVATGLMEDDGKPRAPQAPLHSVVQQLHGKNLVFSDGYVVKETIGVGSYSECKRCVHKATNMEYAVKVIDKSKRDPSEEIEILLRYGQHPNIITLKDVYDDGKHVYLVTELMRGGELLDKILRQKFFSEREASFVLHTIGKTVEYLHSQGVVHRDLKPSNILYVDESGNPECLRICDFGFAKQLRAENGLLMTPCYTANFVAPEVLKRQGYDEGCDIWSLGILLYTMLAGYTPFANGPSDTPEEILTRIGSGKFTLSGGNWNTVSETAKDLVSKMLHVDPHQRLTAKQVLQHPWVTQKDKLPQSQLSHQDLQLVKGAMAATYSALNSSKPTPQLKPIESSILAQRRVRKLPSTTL
How it was run: as §1

Compound | % change of MS signal compared to control sample (CHK1) | % change of MS signal compared to control sample (CHK2) | % change of MS signal compared to control sample (FER) | % change of MS signal compared to control sample (GCK) | % change of MS signal compared to control sample (MAP2K4) | % change of MS signal compared to control sample (MAP2K5) | % change of MS signal compared to control sample (MST3) | % change of MS signal compared to control sample (NDR2) | % change of MS signal compared to control sample (SMG1) | percent of control binding remaining (lower = stronger binding) (broad panel of kinases [1]) | percent of control binding remaining (lower = stronger binding) (broad panel of kinases [2]) | percent of control binding remaining (lower = stronger binding) (broad panel of kinases [5]) | percent of control binding remaining (lower = stronger binding) (broad panel of kinases [6]) | percent of control binding remaining (lower = stronger binding) (broad panel of kinases [7]) | percent of control binding remaining (lower = stronger binding) (broad panel of kinases [8]) | percent of control binding remaining (lower = stronger binding) (broad panel of kinases [9]) | percent of control binding remaining (lower = stronger binding) (broad panel of kinases [10]) | percent of control binding remaining (lower = stronger binding) (broad panel of kinases [11]) | percent of control binding remaining (lower = stronger binding) (broad panel of kinases [12]) | percent of control binding remaining (lower = stronger binding) (broad panel of kinases [13]) | other results
C=CC(=O)N1CCC(CNc2nccc(Nc3ncc(C(=O)Nc4c(C)cccc4C)s3)n2)C1 (racemic) [Example I-8] | 15.3% and 24.7% | −14.3% and −10.9% | −7.7% and −4.8% | 2.0% and 2.4% | −8.5% and −6.1% | 19.2% and 30.9% | −1.5% and −7.7% | 1.9% and 9.1% | 23.1% | – | – | – | – | – | – | – | – | – | – | – | –
C=CC(=O)N1CC[C@H](Nc2nc(CN3CCOCC3)cc(Nc3ncc(C(=O)Nc4c(C)cccc4C)s3)n2)C1 [Example I-2] | – | – | – | – | – | – | – | – | – | 100% | 98% | 67% | 92% | 100% | 100% | 99% | 87% | 0.25% | 100% | 60% | percent of control binding remaining (lower = stronger binding) (broad panel of kinases [3]): 0.45%; percent of control binding remaining (lower = stronger binding) (broad panel of kinases [4]; ABL1(Q252H)-nonphosphorylated): 0.3%; percent of control binding remaining (lower = stronger binding) (broad panel of kinases [4]; ABL1(Q252H)-phosphorylated): 0.25%; percent of control binding remaining (lower = stronger binding) (broad panel of kinases [14]): 62%; percent of control binding remaining (lower = stronger binding) (broad panel of kinases [15]): 96%; percent of control binding remaining (lower = stronger binding) (broad panel of kinases [16]): 93%; percent of control binding remaining (lower = stronger binding) (broad panel of kinases [17]): 96%; percent of control binding remaining (lower = stronger binding) (broad panel of kinases [18]): 96%; percent of control binding remaining (lower = stronger binding) (broad panel of kinases [19]): 100%; percent of control binding remaining (lower = stronger binding) (broad panel of kinases [20]): 92%; percent of control binding remaining (lower = stronger binding) (broad panel of kinases [21]): 96%; percent of control binding remaining (lower = stronger binding) (broad panel of kinases [22]): 84%; percent of control binding remaining (lower = stronger binding) (broad panel of kinases [23]): 93%
C=CC(=O)N1CC[C@H](Nc2nccc(Nc3ncc(C(=O)Nc4c(C)cccc4C)s3)n2)C1 [Example I-3] | – | – | – | – | – | – | – | – | – | 88% | 90% | 93% | 100% | 97% | 90% | 100% | 91% | 0.45% | 100% | 88% | % change compared to control (broad panel of kinases [3]): 0.5%; % change compared to control (broad panel of kinases [4]; ABL1(Q252H)-nonphosphorylated): 0.15%; % change compared to control (broad panel of kinases [4]; ABL1(Q252H)-phosphorylated): 0.3%; percent of control binding remaining (lower = stronger binding) (broad panel of kinases [14]): 63%; percent of control binding remaining (lower = stronger binding) (broad panel of kinases [15]): 84%; percent of control binding remaining (lower = stronger binding) (broad panel of kinases [16]): 90%; percent of control binding remaining (lower = stronger binding) (broad panel of kinases [17]): 100%; percent of control binding remaining (lower = stronger binding) (broad panel of kinases [18]): 91%; percent of control binding remaining (lower = stronger binding) (broad panel of kinases [19]): 100%; percent of control binding remaining (lower = stronger binding) (broad panel of kinases [20]): 98%; percent of control binding remaining (lower = stronger binding) (broad panel of kinases [21]): 94%; percent of control binding remaining (lower = stronger binding) (broad panel of kinases [22]): 72%; percent of control binding remaining (lower = stronger binding) (broad panel of kinases [23]): 93%
C=CC(=O)N1CC[C@@H](Nc2nccc(Nc3ncc(C(=O)Nc4c(C)cccc4C)s3)n2)C1 [Example I-4] | 24.1% | −7.9% and 1.0% | – | – | −48.8% | – | – | −42.0% | – | – | – | – | – | – | – | – | – | – | – | – | % change of MS signal compared to control sample (CDK5): −7.1% and −7.2%; % change of MS signal compared to control sample (IRAK4): 17.8% and 25.9%; % change of MS signal compared to control sample (MAP2K3): −12.3% and −18.8%; % change of MS signal compared to control sample (PIK3C3): −14.1% and −5.5%; % change of MS signal compared to control sample (RSK1 domain 1): −62.2% and −53.4%
C=CC(=O)N1CCCCC(Nc2nccc(Nc3ncc(C(=O)Nc4c(C)cccc4C)s3)n2)C1 (stereo not shown) [Example I-7] | – | – | −5.8% and −5.3% | −12.2% and −4.1% | – | 37.6% and 45.7% | – | – | 21.5% | – | – | – | – | – | – | – | – | – | – | – | –
C=CC(=O)N1CCC(Cn2ccc(Nc3ncc(C(=O)Nc4c(C)cccc4Cl)s3)n2)C1 (stereo not shown) [II-1] | – | – | – | – | – | – | 5.9% and 2.0% | – | – | – | – | – | – | – | – | – | – | – | – | – | % change of MS signal compared to control sample (CDK5): −11.2% and −8.0%; % change of MS signal compared to control sample (IRAK4): 15.9% and 18.5%; % change of MS signal compared to control sample (MAP2K3): −19.5% and −15.9%; % change of MS signal compared to control sample (PIK3C3): −4.7% and −11.6%; % change of MS signal compared to control sample (RSK1 domain 1): −76.3%
